Source: US10633377B2, “Imidazole and thiazole compositions for modifying biological signaling” (Ohio University, priority 2014, dated 2020)
Read-outs that look alike come from different tables or passages of the source.

Tests used:
iNOS transcripts = assay: Inhibition of LPS induction of iNOS transcripts in macrophages (rt-PCR); assay type: cell-based; conditions: LPS-treated murine macrophages, mRNA transcripts by rt-PCR
Description: (§1) Murine macrophages were treated with LPS in the presence of various exemplary compounds described above. Subsequently, the cells were harvested and the transcripts for IL-6, iNOS, and INF-β quantified via rt-PCR. IC50 is the concentration of the compounds required to inhibit 50% of the mRNA transcripts induced by LPS. TC50 is the concentration of the compounds required to diminish the MTS signal by 50% (MTS signal correlates with cell metabolism/viability). Therapeutic Index (TI) is the ratio of TC50 to IC50.
(§2) In TABLE 4, data are provided that show effects of exemplary compounds described above on the inhibition of LPS induction of IL-6, iNOS, and INF-β transcripts in macrophages. The IL-6, iNOS, and INF-β transcripts are key mediators in a plethora of signaling networks that are involved in normal physiology and pathological processes. The mechanism by which LPS induces the IL-6, iNOS, and INF-β transcripts is via a network of signaling events. […] Data in TABLE 4 that was not calculatable is noted “NC.”

INF-β transcripts = assay: Inhibition of LPS induction of INF-β transcripts in macrophages (rt-PCR); assay type: cell-based, Murine; conditions: for IC50: LPS-treated murine macrophages, mRNA transcripts by rt-PCR
Description: as §1, §2

[1] = MTS signal (cell metabolism/viability); assay type: cell-based, Murine; conditions: mouse, murine macrophages; concentration required to diminish the MTS signal by 50%; read-out: Average TC50
Description: as §1

IL-6 transcripts = assay: Inhibition of LPS induction of IL-6 transcripts in macrophages (rt-PCR); assay type: cell-based, Murine; conditions: for IC50: LPS-treated murine macrophages, mRNA transcripts by rt-PCR
Description: as §1, §2

Murine macrophages = assay: MTS signal (cell metabolism/viability); assay type: cell-based
Description: as §1

Structure (SMILES) | IC50 (iNOS transcripts; Mus musculus, Macrophage) | IC50 (INF-β transcripts; Mus musculus, Macrophage) | CC50 [1] | IC50 (IL-6 transcripts; Mus musculus, Macrophage) | further results
OC1(c2ccccc2)CSC(=S)N1Cc1ccncc1 (stereo not drawn) [COB-187] | 0.375 µM | 0.125 µM | 15 µM |  | 
CCn1c(-c2cccc(Cl)c2)c[nH]c1=O [COB-125] | 43 µM | 36 µM | 500 µM | 31 µM | 
O=c1oc2ccccc2cc1C1(O)CSC(=S)N1Cc1cccnc1 (stereo not drawn) [COB-202] | 2.2 µM | 4.4 µM | 43 µM |  | 
COc1ccc(-c2c[nH]c(=S)n2C)c(OC)c1 [COB-130] | 26 µM | 47 µM |  | 29 µM | 
OC1(c2ccccc2)CSC(=S)N1CCCc1ccccc1 (stereo not drawn) [COB-168] | 1.5 µM | 1.5 µM | 12 µM | 17 µM | 
OC1(c2ccccc2)CSC(=S)N1Cc1cccnc1 (stereo not drawn) [COB-152] | 0.156 µM | 0.156 µM | 18 µM | 4.25 µM | 
CCCCCCN1C(=S)SCC1(O)c1ccccc1 (stereo not drawn) [COB-212] | 3.4 µM | 3.6 µM | 54 µM |  | 
Cc1ccc(C)c(C2(O)CSC(=S)N2Cc2cccnc2)c1 (stereo not drawn) [COB-223] | 0.4 µM | 0.4 µM | 14 µM | 3.5 µM | 
COc1ccc(-c2csc(=S)n2Cc2cccnc2)cc1 [COB-206] | 54 µM | 30 µM | 120 µM | 10.5 µM | 
OC1(c2ccccc2)CSC(=S)N1Cc1nc2ccccc2[nH]1 (stereo not drawn) [COB-183] | 9.5 µM | 8 µM | > 50 µM | 19 µM | 
COc1ccc(-c2c[nH]c(=S)n2C)cc1OC [COB-123] | 55 µM | 21 µM |  | 19 µM | 
COc1ccc(OC)c(C2(O)CSC(=S)N2Cc2cccnc2)c1 (stereo not drawn) [COB-197] | 2.5 µM | 2.5 µM |  |  | 
CCCN1C(=S)SCC1(O)c1ccc(Cl)c(Cl)c1 (stereo not drawn) [COB-210] | 2 µM | 3 µM | 45 µM | 16 µM | 
Cc1ccccc1C1(O)CSC(=S)N1Cc1cccnc1 (stereo not drawn) [COB-224] | 0.4 µM | 0.45 µM | 13 µM | 3.5 µM | 
Oc1ccc(Cl)cc1C1(O)CSC(=S)N1Cc1cccnc1 (stereo not drawn) [COB-222] | 0.45 µM | 0.45 µM | 15 µM | 8.6 µM | 
CCCn1c(-c2ccc(Cl)c(Cl)c2)csc1=S [COB-219] | ~20 µM | 16.5 µM |  | 8.5 µM | MTS signal decrease (Murine macrophages; 100 μM): 30%
Oc1cccc(C2(O)CSC(=S)N2Cc2ccccc2)c1 (stereo not drawn) [COB-196] | 0.5 µM | 0.375 µM | 17 µM |  | 
Oc1ccc(C2(O)CSC(=S)N2Cc2cccnc2)c(O)c1 (stereo not drawn) [COB-200] | 0.5 µM | 0.4 µM | 11 µM |  | 
Cn1c(-c2ccc(OC(F)(F)F)cc2)c[nH]c1=S [COB-134] | 87 µM | 135 µM |  | 66 µM | 
Oc1cccc(C2(O)CSC(=S)N2Cc2cccnc2)c1 (stereo not drawn) [COB-198] | 0.15 µM | 0.2 µM | 17 µM |  | 
OC1(c2ccccc2)CSC(=S)N1Cc1cccc(CN2C(=S)SCC2(O)c2ccccc2)c1 (stereo not drawn) [COB-186] | 1.9 µM |  | 4 µM |  | IL-6 inhibition printed in IC50 column (IL-6 transcripts; 0.03 μM-2 μM): <30%; INF-β inhibition printed in IC50 column (INF-β transcripts; 0.5 μM-2 μM): 40%

Structure (SMILES) | IC50 (iNOS transcripts; Mus musculus, Macrophage) | IC50 (INF-β transcripts; Mus musculus, Macrophage) | CC50 [1] | IC50 (IL-6 transcripts; Mus musculus, Macrophage) | further results
OC1(c2ccccc2)CSC(=S)N1Cc1ccc2[nH]ccc2c1 (stereo not drawn) [COB-188] | 0.25 µM | 0.25 µM | 13 µM |  | 
COc1cccc(-c2c[nH]c(=S)n2C)c1 [COB-117] | 36 µM | 22 µM |  | 30 µM | 
COc1ccc(OC)c(-c2csc(=S)n2Cc2cccnc2)c1 [COB-203] |  | 8 µM | 270 µM | 19.5 µM | 
CCCn1c(-c2cc(OC)ccc2OC)csc1=S [COB-220] | 3.75 µM | 12.2 µM | 60 µM | 5.5 µM | 
COc1ccc(C2(O)CSC(=S)N2Cc2cccnc2)c(OC)c1 (stereo not drawn) [COB-199] | 2.2 µM | > 5 µM | 23 µM |  | 
CCCn1c(-c2cccc([N+](=O)[O-])c2)csc1=S [COB-215] | ~10 µM | ~10 µM | ~100 µM | 8.8 µM | 
OC1(c2cc(C(F)(F)F)ccc2Cl)CSC(=S)N1Cc1cccnc1 (stereo not drawn) [COB-226] | 1.5 µM | 1.5 µM | 33 µM | 12.5 µM | 
COc1ccc(F)cc1C1(O)CSC(=S)N1Cc1cccnc1 (stereo not drawn) [COB-225] | 1 µM | 1 µM | 65 µM | 32.5 µM | 
Cn1c(-c2cccc(Cl)c2)c[nH]c1=S [COB-119] | 60 µM | 46 µM | 390 µM | 45 µM | 
COc1ccc(OC)c(-c2c[nH]c(=S)n2C)c1 [COB-132] | 38 µM | 85 µM | 360 µM | 26 µM | 
COc1ccc(C2(O)CSC(=S)N2Cc2cccnc2)cc1 (stereo not drawn) [COB-201] | 0.45 µM | 1.25 µM | 10 µM |  | 
CCCCCCn1c(-c2ccccc2)csc1=S [COB-218] |  | 10.5 µM |  | 9.5 µM | MTS signal decrease (Murine macrophages; 100 μM): 0%
C=CCn1c(-c2ccccc2)csc1=S [COB-217] |  |  |  |  | IC50 (IL-6 transcripts): 8.2 µM; IC50 (iNOS transcripts): ~10 µM; IC50 (INF-β transcripts): ~10 µM; MTS signal decrease (Murine macrophages): 30%
COc1ccc(OC)c(C2(O)CSC(=S)N2Cc2ccccc2)c1 (stereo not drawn) [COB-143] | 3 µM | 1 µM | 23 µM | 13 µM | 
CCCN1C(=S)SCC1(O)c1cccnc1 (stereo not drawn) [COR-207] | 2.7 µM | 2.1 µM |  | 12 µM | 
CCCn1c(-c2cccnc2)csc1=S [COB-214] | 10.5 µM |  | 230 µM | 6 µM | 
CCCn1c(-c2ccc(C#N)cc2)csc1=S [COR-216] | ~10 µM | ~10 µM | > 100 µM | 8.1 µM | 
COc1ccc(-c2csc(=S)n2Cc2cccnc2)c(OC)c1 [COB-204] | 7 µM | 14 µM | 130 µM | 5 µM | 
Oc1ccc(Cl)cc1C1(O)CSC(=S)N1Cc1ccccc1 (stereo not drawn) [COB-221] | 1.8 µM | 1.5 µM | 18 µM | > 10 µM | 
S=c1scc(-c2ccccc2)n1CCc1ccccc1 [COB-177] | 32 µM | 13 µM |  | 8 µM | 
